The IC50 is the concentration that gives 50% inhibition.

Bridge positions count the residues as written; N and C are the ends. Square brackets hold non-standard residues; d marks the D form. Peptide text beside a SMILES is read from it. * marks the point of attachment. ξ: configuration not given here. Phe(3-CF3) = N[C@@H](Cc1cccc(C(F)(F)F)c1)C(=O)O; Ala(morpholin-4-yl) = N[C@@H](CN1CCOCC1)C(=O)O; Phe(4-COOH) = N[C@@H](Cc1ccc(C(=O)O)cc1)C(=O)O; Bip = N[C@@H](Cc1ccc(-c2ccccc2)cc1)C(=O)O; Phe(3-Me) = Cc1cccc(C[C@H](N)C(=O)O)c1; NH(CH2)12COOH = O=C(O)CCCCCCCCCCCCN*; Val(3-OH) = CC(C)(O)[C@H](N)C(=O)O; hArg = N=C(N)NCCCC[C@H](N)C(=O)O; Cha = N[C@@H](CC1CCCCC1)C(=O)O; Cit = NC(=O)NCCC[C@H](N)C(=O)O; Ile(3ξ) = CCC(C)[C@H](N)C(=O)O; dCha = N[C@H](CC1CCCCC1)C(=O)O; Thr(3ξ) = CC(O)[C@H](N)C(=O)O; PEG4 = NCCOCCOCCOCCOCCC(=O)O; Phg = N[C@H](C(=O)O)c1ccccc1; 12Ado = NCCCCCCCCCCCC(=O)O; Carboxymethyl = O=C(O)C*; Orn = NCCC[C@H](N)C(=O)O; Aun = NCCCCCCCCCCC(=O)O; Dab = NCC[C@H](N)C(=O)O; Dap = NC[C@H](N)C(=O)O; AEEA = NCCOCCOCC(=O)O; Ac3c = NC1(C(=O)O)CC1

Here are results for twelve compounds from patent US20260022142A1, “MACROCYCLIC IMMUNOMODULATORS” (Bristol-Myers Squibb Company, priority 2022, published 2026).

In this experiment the target is T1, PD-1/PD-L1 interaction (PE-labeled human PD-L1-Ig binding to Jurkat cell line over-expressing human PD-1) (Homo sapiens, UniProt Q15116).
T1 construct: expressed in transfected cells; host or cells: Jurkat
T1 sequence (Q15116 25-288): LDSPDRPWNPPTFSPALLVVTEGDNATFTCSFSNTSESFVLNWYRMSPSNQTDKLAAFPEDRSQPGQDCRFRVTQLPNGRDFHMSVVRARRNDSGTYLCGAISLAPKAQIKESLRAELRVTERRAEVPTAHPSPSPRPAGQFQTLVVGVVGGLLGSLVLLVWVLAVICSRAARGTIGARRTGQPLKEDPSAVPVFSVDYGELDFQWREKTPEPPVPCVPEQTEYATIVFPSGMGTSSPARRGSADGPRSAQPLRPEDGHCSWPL
Put plainly: Jurkat-PD-1 Cell Binding High-Content Screening Assay (CBA). The following applies: Jurkat cell line over-expressing human PD-1; PE-labeled PD-L1-Ig 20 nM final; read-out: Jurkat hPD1-PDL1 IC50. Type of experiment: cell-based. The method in brief: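 Jurkat cells over-expressing human PD-1 (8×10^3 per well, DMEM/10% FCS) preincubated with compound 2 h at 37° C, then PE-labeled human PD-L1-Ig (20 nM final) added for 1 h. Cells fixed with paraformaldehyde, Hoechst-stained, and bound fluorescence quantified by high-content imaging.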
As for `CCC(C)[C@@H]1NC(=O)[C@H](Cc2ccc(-c3ccccc3)cc2)NC(=O)[C@H](C(C)C)NC(=O)[C@H](Cc2cccc(C)c2)NC(=O)[C@H](CC(=O)O)NC(=O)[C@H](Cc2ccc(OCC(=O)O)cc2)NC(=O)[C@H](C(C)O)NC(=O)CSC[C@@H](C(=O)NCCOCCOCC(=O)N[C@@H](CCCCN)C(=O)NCCCCCCCCCCCC(=O)O)NC(=O)[C@H](C(C)O)NC(=O)[C@H](C(C)C)NC(=O)[C@H](CC2CCCCC2)NC(=O)[C@H](CCN)NC(=O)[C@@H](CC(C)C)NC(=O)[C@H](CCCN)NC1=O` (stereo partly drawn) [Compound 3095] ({CH2CO}-[Thr(3ξ)]Y(Carboxymethyl)D[Phe(3-Me)]V[Bip][Ile(3ξ)][Orn][dL][Dab][Cha]V[Thr(3ξ)]C[AEEA]K[12Ado]-OH; thioether N-14), the half-inhibitory concentration (IC50) was 10.1 nM.

Turning to `Cc1cccc(C[C@@H]2NC(=O)[C@H](CC(=O)O)NC(=O)[C@H](Cc3ccc(OCC(=O)O)cc3)NC(=O)[C@H](CN)NC(=O)CSC[C@@H](C(=O)NCCOCCOCC(=O)N[C@@H](CCN)C(=O)NCCCCCCCCCCC(=O)O)NC(=O)[C@H](CCCN)NC(=O)[C@H](C(C)C)NC(=O)[C@H](CC3CCCCC3)NC(=O)[C@H](CCN)NC(=O)[C@@H](CC3CCCCC3)NC(=O)[C@H](CCCN)NC(=O)[C@H](C(C)C)NC(=O)[C@H](Cc3ccc(-c4ccccc4)cc3)NC(=O)[C@H](C(C)C)NC2=O)c1` [Compound 2677] ({CH2CO}-[Dap]Y(Carboxymethyl)D[Phe(3-Me)]V[Bip]V[Orn][dCha][Dab][Cha]V[Orn]C[AEEA][Dab][Aun]-OH; thioether N-14), the IC50 worked out at 18 nM.

For `Cc1cccc(C[C@@H]2NC(=O)[C@H](CC(=O)O)NC(=O)[C@H](Cc3ccc(OCC(=O)O)cc3)NC(=O)[C@H](CC(N)=O)NC(=O)CSC[C@@H](C(=O)N[C@@H](CCN)C(=O)NCCCCCCCCCCC(=O)O)NC(=O)[C@H](CCCN)NC(=O)[C@H](C(C)C)NC(=O)[C@H](CC3CCCCC3)NC(=O)[C@H](CCN)NC(=O)[C@@H](CC(C)C)NC(=O)[C@H](CCCN)NC(=O)[C@H](Cc3ccc(O)cc3)NC(=O)[C@H](Cc3ccc(-c4ccccc4)cc3)NC(=O)[C@H](C(C)C)NC2=O)c1` [Compound 2698] ({CH2CO}-NY(Carboxymethyl)D[Phe(3-Me)]V[Bip]Y[Orn][dL][Dab][Cha]V[Orn]C[Dab][Aun]-OH; thioether N-14), the half-inhibitory concentration (IC50) came out at 11 nM.

Take `Cc1cccc(C[C@@H]2NC(=O)[C@H](CC(=O)O)NC(=O)[C@H](Cc3ccc(OCC(=O)O)cc3)NC(=O)[C@H](CN)NC(=O)CSC[C@@H](C(=O)N[C@@H](CCN)C(=O)NCCCCCCCCCCC(=O)O)NC(=O)[C@H](c3ccccc3)NC(=O)[C@H](C(C)C)NC(=O)[C@H](CC(C)C)NC(=O)[C@H](CCN)NC(=O)[C@@H](CC(C)C)NC(=O)[C@H](CCCN)NC(=O)[C@H](Cc3ccc(O)cc3)NC(=O)[C@H](Cc3ccc(-c4ccccc4)cc3)NC(=O)[C@H](C(C)C)NC2=O)c1` [Compound 2772] ({CH2CO}-[Dap]Y(Carboxymethyl)D[Phe(3-Me)]V[Bip]Y[Orn][dL][Dab]LV[Phg]C[Dab][Aun]-OH; thioether N-14): the IC50 was 67.7 nM.

Take `Cc1cccc(C[C@@H]2NC(=O)[C@H](CC(=O)O)NC(=O)[C@H](Cc3ccc(OCC(=O)O)cc3)NC(=O)[C@H](CC(N)=O)NC(=O)CSC[C@@H](C(=O)N[C@@H](CCN)C(=O)NCCCCCCCCCCC(=O)O)NC(=O)[C@H](CCC(=O)O)NC(=O)[C@H](C(C)C)NC(=O)[C@H](CC3CCCCC3)NC(=O)[C@H](CCN)NC(=O)[C@@H](CC(C)C)NC(=O)[C@H](CCCN)NC(=O)[C@H](Cc3ccc(O)cc3)NC(=O)[C@H](Cc3ccc(-c4ccccc4)cc3)NC(=O)[C@H](C(C)C)NC2=O)c1` [Compound 3379] ({CH2CO}-NY(Carboxymethyl)D[Phe(3-Me)]V[Bip]Y[Orn][dL][Dab][Cha]VEC[Dab][Aun]-OH; thioether N-14): the 50% inhibitory concentration (IC50) was 9.5 nM.

For `Cc1cccc(C[C@@H]2NC(=O)[C@H](CC(=O)O)NC(=O)[C@H](Cc3ccc(OCC(=O)O)cc3)NC(=O)[C@H](CCN)NC(=O)CSC[C@@H](C(=O)N[C@@H](CCN)C(=O)NCCOCCOCC(=O)NCCCCCCCCCCCCC(=O)O)NC(=O)[C@H](Cc3c[nH]cn3)NC(=O)[C@H](C(C)(C)O)NC(=O)[C@H](CC3CCCCC3)NC(=O)[C@H](CCN)NC(=O)[C@@H](CC(C)C)NC(=O)[C@H](CCCN)NC(=O)[C@H](Cc3ccc(OCC(=O)O)cc3)NC(=O)[C@H](Cc3ccc(-c4ccccc4)cc3)NC(=O)[C@H](Cc3ccc(OCC(=O)O)cc3)NC2=O)c1` [Compound 2871] ({CH2CO}-[Dab]Y(Carboxymethyl)D[Phe(3-Me)]Y(Carboxymethyl)[Bip]Y(Carboxymethyl)[Orn][dL][Dab][Cha][Val(3-OH)]HC[Dab][AEEA]-{NH(CH2)12COOH}; thioether N-14), the half-maximal inhibitory concentration (IC50) turned out to be 16.9 nM.

Take `Cc1cccc(C[C@@H]2NC(=O)[C@H](CC(=O)O)NC(=O)[C@H](Cc3ccc(OCC(=O)O)cc3)NC(=O)[C@H](CN)NC(=O)CSC[C@@H](C(=O)N[C@@H](CCN)C(=O)NCCCCCCCCCCCC(=O)O)NC(=O)[C@H](C(C)O)NC(=O)[C@H](C(C)C)NC(=O)[C@H](CC3CCCCC3)NC(=O)[C@H](CCN)NC(=O)[C@@H](CC(C)C)NC(=O)[C@H](CCCN)NC(=O)[C@H](CCCNC(N)=O)NC(=O)[C@H](Cc3ccc(-c4ccccc4)cc3)NC(=O)[C@H](C(C)C)NC2=O)c1` (stereo partly drawn) [Compound 3125] ({CH2CO}-[Dap]Y(Carboxymethyl)D[Phe(3-Me)]V[Bip][Cit][Orn][dL][Dab][Cha]V[Thr(3ξ)]C[Dab][12Ado]-OH; thioether N-14): the IC50 was 29.1 nM.

Take `CC(C)C[C@H]1NC(=O)[C@H](CCCN)NC(=O)[C@H](Cc2ccc(O)cc2)NC(=O)[C@H](Cc2ccc(-c3ccccc3)cc2)NC(=O)[C@H](Cc2ccc(O)cc2)NC(=O)[C@H](Cc2c[nH]c3ccccc23)NC(=O)[C@H](CC(=O)O)NC(=O)[C@H](Cc2ccc(OCC(=O)O)cc2)NC(=O)[C@H](Cc2ccc(OCC(=O)O)cc2)NC(=O)CSC[C@@H](C(=O)NCCOCCOCC(=O)NCCCCCCCCCCC(=O)O)NC(=O)[C@H](CCCN)NC(=O)[C@H](Cc2ccc(O)cc2)NC(=O)[C@H](CC2CCCCC2)NC(=O)[C@H](CCN)NC1=O` [Compound 2521] ({CH2CO}-Y(Carboxymethyl)Y(Carboxymethyl)DWY[Bip]Y[Orn][dL][Dab][Cha]Y[Orn]C[AEEA][Aun]-OH; thioether N-14): the IC50 is 89.1 nM.

On to `Cc1cccc(C[C@@H]2NC(=O)[C@H](CC(=O)O)NC(=O)[C@H](Cc3ccc(OCC(=O)O)cc3)NC(=O)[C@H](C)NC(=O)CSC[C@@H](C(=O)N[C@@H](CCN)C(=O)NCCOCCOCC(=O)NCCCCCCCCCCC(=O)O)NC(=O)[C@H](CO)NC(=O)[C@H](C(C)(C)O)NC(=O)[C@H](CC3CCCCC3)NC(=O)[C@H](CCN)NC(=O)[C@@H](CC(C)C)NC(=O)[C@H](CCCN)NC(=O)[C@H](Cc3ccc(C(=O)O)cc3)NC(=O)[C@H](Cc3ccc(-c4ccccc4)cc3)NC(=O)[C@H](Cc3ccc(C(=O)O)cc3)NC2=O)c1` [Compound 3769] ({CH2CO}-AY(Carboxymethyl)D[Phe(3-Me)][Phe(4-COOH)][Bip][Phe(4-COOH)][Orn][dL][Dab][Cha][Val(3-OH)]SC[Dab][AEEA][Aun]-OH; thioether N-14), for which the 50% inhibitory concentration (IC50) turned out to be 3.5 nM.

Regarding `Cc1cccc(C[C@@H]2NC(=O)[C@H](CC(=O)O)NC(=O)[C@H](Cc3ccc(OCC(=O)O)cc3)NC(=O)[C@H](Cc3ccc(OCC(=O)O)cc3)NC(=O)CSC[C@@H](C(=O)NC3(C(=O)NCCOCCOCC(=O)NCCCCCCCCCCC(=O)O)CC3)NC(=O)[C@H](CCCN)NC(=O)[C@H](C(C)C)NC(=O)[C@H](CC3CCCCC3)NC(=O)[C@H](CCN)NC(=O)[C@@H](CC(C)C)NC(=O)[C@H](CCCN)NC(=O)[C@H](Cc3ccc(O)cc3)NC(=O)[C@H](Cc3ccc(-c4ccccc4)cc3)NC(=O)[C@H](Cc3ccc(O)cc3)NC2=O)c1` [Compound 2078] ({CH2CO}-Y(Carboxymethyl)Y(Carboxymethyl)D[Phe(3-Me)]Y[Bip]Y[Orn][dL][Dab][Cha]V[Orn]C[Ac3c][AEEA][Aun]-OH; thioether N-14), the IC50 was determined as 3.9 nM.

For the compound `CC(C)C[C@H]1NC(=O)[C@H](CCCN)NC(=O)[C@H](Cc2ccc(C(=O)O)cc2)NC(=O)[C@H](Cc2ccc(-c3ccccc3)cc2)NC(=O)[C@H](Cc2ccc(C(=O)O)cc2)NC(=O)[C@H](Cc2cccc(C(F)(F)F)c2)NC(=O)[C@H](CC(=O)O)NC(=O)[C@H](Cc2ccc(OCC(=O)O)cc2)NC(=O)[C@H](CN2CCOCC2)NC(=O)CSC[C@@H](C(=O)N[C@@H](CCN)C(=O)NCCOCCOCCOCCOCCC(=O)NCCCCCCCCCCCCC(=O)O)NC(=O)[C@H](CO)NC(=O)[C@H](C(C)(C)O)NC(=O)[C@H](CC2CCCCC2)NC(=O)[C@H](CCN)NC1=O` [Compound 2916] ({CH2CO}-[Ala(morpholin-4-yl)]Y(Carboxymethyl)D[Phe(3-CF3)][Phe(4-COOH)][Bip][Phe(4-COOH)][Orn][dL][Dab][Cha][Val(3-OH)]SC[Dab][PEG4]-{NH(CH2)12COOH}; thioether N-14), the IC50 worked out at 25.3 nM.

Take `CC(C)C[C@H]1NC(=O)[C@H](CCCN)NC(=O)[C@H](C(C)C)NC(=O)[C@H](Cc2ccc(-c3ccccc3)cc2)NC(=O)[C@H](C(C)C)NC(=O)[C@H](Cc2c[nH]c3ccccc23)NC(=O)[C@H](CC(=O)O)NC(=O)[C@H](Cc2c[nH]cn2)NC(=O)[C@H](CCCCNC(=N)N)NC(=O)CSC[C@@H](C(=O)N[C@@H](CCN)C(=O)NCCCCCCCCCCC(=O)O)NC(=O)[C@H](CO)NC(=O)[C@H](C(C)C)NC(=O)[C@H](CC2CCCCC2)NC(=O)[C@H](CCN)NC1=O` [Compound 3271] ({CH2CO}-[hArg]HDWV[Bip]V[Orn][dL][Dab][Cha]VSC[Dab][Aun]-OH; thioether N-14): the half-inhibitory concentration (IC50) amounted to 31.6 nM.
